Source: patent publication US7015242B2, “Methods for treating hyperactive gastrointestinal motility” (Wyeth, priority 2001, dated 2006)

Assays:
[1] = system: isolated carbachol contracted rat bladder strips; experiment: Relaxation of isolated carbachol contracted rat bladder strips; details: for effect on retigabine-induced relaxation of bladder strips: M-current blockers added after retigabine
Protocol: (§1) Using quantitative rtPCR, the expression of KCNQ1, KCNQ3 and KCNQ5 potassium channels was identified in the rat urinary bladder. […] To further probe M-current activity in the bladder, retigabine (10 μM, M-current agonist) was tested in isolated bladder smooth muscle cells using standard patch-clamp techniques. […] This hyperpolarization was reversed by the addition of linopirdine (50 μM an M-current antagonist) to the tissue bath. […] This relaxation was reversed by the M-current blockers linopirdine and XE-991.

[2] = system: isolated precontracted guinea pig ileum; experiment: Isolated precontracted guinea pig ileum preparations in tissue bath
Protocol: Following the procedures of the previous example, the effects of retigabine on isolated precontracted guinea pig ileum preparations were studied. Sections of ileum were isolated from male guinea pigs and suspended in a tissue bath. One end of the tissue was anchored to the bottom of the bath, and the other end to a force transducer. Tissues were contracted with either 20 mM KCl or 200 nM carbachol. The KCNQ channel agonist retigabine was added to the tissue baths in increasing concentrations.

[3] = system: isolated bladder smooth muscle cells; experiment: Patch-clamp of isolated bladder smooth muscle cells (M-current activity); type: cell-based, rat
Protocol: as §1

[4] = molecular target: T1, KCNQ2/3 potassium channels (Homo sapiens, UniProt O43525+O43526); details: oocytes; cited from earlier work
T1 construct: host or cells: oocytes (heterologous expression, as described in the cited article)
T1 sequence (O43526 whole entry): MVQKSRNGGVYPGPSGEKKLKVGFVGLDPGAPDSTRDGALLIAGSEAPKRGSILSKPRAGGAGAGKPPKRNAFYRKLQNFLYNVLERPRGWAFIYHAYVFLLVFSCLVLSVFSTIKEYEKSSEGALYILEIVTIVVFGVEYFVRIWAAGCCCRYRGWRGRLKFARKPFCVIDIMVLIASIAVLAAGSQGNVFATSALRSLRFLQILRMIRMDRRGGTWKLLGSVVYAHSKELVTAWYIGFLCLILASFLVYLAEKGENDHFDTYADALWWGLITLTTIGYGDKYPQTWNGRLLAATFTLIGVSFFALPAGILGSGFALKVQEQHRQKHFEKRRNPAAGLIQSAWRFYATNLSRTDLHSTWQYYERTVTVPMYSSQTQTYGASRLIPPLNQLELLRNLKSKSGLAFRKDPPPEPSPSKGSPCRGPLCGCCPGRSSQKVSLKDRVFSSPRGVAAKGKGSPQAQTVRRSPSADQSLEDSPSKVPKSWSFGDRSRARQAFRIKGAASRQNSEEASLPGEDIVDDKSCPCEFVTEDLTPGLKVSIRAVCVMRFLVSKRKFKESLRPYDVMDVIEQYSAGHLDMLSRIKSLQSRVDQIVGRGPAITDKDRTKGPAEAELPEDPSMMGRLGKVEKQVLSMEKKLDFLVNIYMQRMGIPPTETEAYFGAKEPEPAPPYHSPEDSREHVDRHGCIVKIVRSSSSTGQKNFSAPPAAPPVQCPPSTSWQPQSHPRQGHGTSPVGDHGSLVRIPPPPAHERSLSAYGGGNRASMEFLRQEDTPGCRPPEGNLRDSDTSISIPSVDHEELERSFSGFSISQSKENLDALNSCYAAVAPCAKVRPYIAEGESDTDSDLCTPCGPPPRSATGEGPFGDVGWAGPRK
T1 sequence (O43525 whole entry): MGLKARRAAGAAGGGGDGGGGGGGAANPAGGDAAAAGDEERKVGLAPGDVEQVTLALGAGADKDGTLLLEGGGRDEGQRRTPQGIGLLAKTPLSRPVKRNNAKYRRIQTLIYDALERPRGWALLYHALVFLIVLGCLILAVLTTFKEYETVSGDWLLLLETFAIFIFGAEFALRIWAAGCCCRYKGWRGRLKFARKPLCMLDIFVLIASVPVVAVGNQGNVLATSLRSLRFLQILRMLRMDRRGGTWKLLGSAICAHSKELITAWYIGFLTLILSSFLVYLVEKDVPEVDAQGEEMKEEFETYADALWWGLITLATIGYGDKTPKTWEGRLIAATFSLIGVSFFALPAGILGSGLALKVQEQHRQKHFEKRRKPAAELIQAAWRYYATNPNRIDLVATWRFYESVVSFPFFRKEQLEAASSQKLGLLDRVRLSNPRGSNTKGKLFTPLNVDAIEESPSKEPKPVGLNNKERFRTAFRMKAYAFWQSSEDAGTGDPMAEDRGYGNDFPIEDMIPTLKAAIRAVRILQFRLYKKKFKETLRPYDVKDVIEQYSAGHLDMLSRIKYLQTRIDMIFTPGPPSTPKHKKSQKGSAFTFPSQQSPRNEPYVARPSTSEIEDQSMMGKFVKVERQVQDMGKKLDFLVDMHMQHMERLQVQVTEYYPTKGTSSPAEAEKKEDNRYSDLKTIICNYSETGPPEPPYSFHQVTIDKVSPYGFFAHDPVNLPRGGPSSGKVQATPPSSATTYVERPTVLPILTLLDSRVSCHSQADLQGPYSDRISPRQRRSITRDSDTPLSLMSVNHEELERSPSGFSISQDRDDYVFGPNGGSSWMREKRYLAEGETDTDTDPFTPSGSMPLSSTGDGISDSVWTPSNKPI

Row | SMILES | effect on retigabine-induced relaxation of bladder strips [1] | effect on responses to retigabine in ileum ([2]; both KCl and carbachol contracted tissues) | effect on retigabine-induced hyperpolarization ([3]; linopirdine 50 μM added to the tissue bath) | membrane hyperpolarization ([3]; retigabine 10 μM, n=5) [mV] | outward current insensitive to iberiotoxin ([3]; retigabine 10 μM, standard patch-clamp) | IC50 ([1]; Rattus norvegicus, read-out: IC50 of relaxation of carbachol contracted bladder strips) [µM] | inhibition of contraction of ileum ([2]; tissues contracted with 20 mM KCl or 200 nM carbachol, increasing concentrations) | channel deactivation [4] | rate of channel activation [4] | voltage dependence of channel activation [4]
1 | O=C1c2ccccc2C(Cc2ccncc2)(Cc2ccncc2)c2ccccc21 [XE-991] | reversed | antagonized | – | – | – | – | – | – | – | –
2 | O=C1N(c2ccccc2)c2ccccc2C1(Cc1ccncc1)Cc1ccncc1 [linopirdine] | reversed | – | reversed | – | – | – | – | – | – | –
3 | CCOC(=O)Nc1ccc(NCc2ccc(F)cc2)cc1N [retigabine, N-[2-amino-4-(4-fluorobenzylamino)-phenyl]carbamic acid ethyl ester] | – | – | – | 17.8±3.0 | significantly increased | 3.5 ± 0.9 | concentration-dependent inhibition of contraction | slows channel deactivation | increases the rate of channel activation | shifts the voltage dependence of channel activation to more hyperpolarized membrane potentials
